Data: patent US7629318B2, “Immunosuppressant compounds, methods and uses related thereto” (priority 2002, dated 2009)
Values joined by “and” are separate entries in the source; they are usually repeats but may differ in a detail not shown here. Identical values can stand only once. Numbered stars: 1 amine (or outer) side, 2 acyl side, 3 side chain; on linkers, the order of the positions; unused ones are H or OH. Square brackets hold non-standard residues; d marks the D form. Peptide text beside a SMILES is read from it. * marks the point of attachment. Gly(1-amidinopiperidin-4-yl) = N=C(N)N1CCC([C@H](N)C(=O)O)CC1; X1 = CC(C)c1oc([C@H](CO)N[*:1])nc1C(=O)[*:2]; Pro(3R-Ph) = O=C(O)[C@H]1NCC[C@@H]1c1ccccc1; Met(O) = CS(=O)CC[C@H](N)C(=O)O; Tic = O=C(O)[C@@H]1Cc2ccccc2CN1; Cha = N[C@@H](CC1CCCCC1)C(=O)O; NMe(benzyl) = CN(Cc1ccccc1)*; Nle = CCCC[C@H](N)C(=O)O; X2 = OCCOCCN(Cc1ccccc1)*; NHBn = c1ccc(CN*)cc1

What was measured:
[1] = target: Cathepsin B1 (EC 3.4.22.1 from bovine spleen) (Bos taurus, UniProt P07688); settings: Cathepsin B, 4 h
[2] = target: DR4Dw14 (DRA1*0101 DRB1*0404) (Homo sapiens, UniProt P01903+P01911, A100R/A169T/F76Y/I96L/K127E/L162R/M171V/N62H/P40V/Q125Y/R42H/S133A/S149N/S66Y/V209L/W38E); test: Competitive binding to MHC-II protein DR4Dw14; settings: 0404; read-out: Protein binding IC50 (nM) 0404
Method in brief: (§1)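 Each MHC-II allele incubated with compound 16 hours at room temperature in duplicate; controls lacked compound, or both compound and MHC-II. Complexes captured 2 h at 4 °C, bound biotinylated peptide detected via europium-streptavidin and DELFIA enhancement, time-resolved fluorescence read at ex 340/em 613 (615) nm.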

[3] = target: DR1 (DRA1*0101 DRB1*0101) (Homo sapiens, UniProt P01903+P01911, A100R/D57E/F55L/F60I/F76Y/I96L/L162R/M171V/P40L/Q125E/R42F/V115G/Y59C); test: Competitive binding to MHC-II protein DR1; settings: Protein binding IC50 (nM) 0101, 0101
Method in brief: as §1

[4] = tested on: T-cell proliferation, lymph node cells of chimeric 0401-IE transgenic mice; settings: for Immunsupressive assays DR4-LN (Max) % Inhibition: maximal inhibition; for IC50: read-out: Immunsupressive assays DR4-LN (IC50); for Immunsupressive assays DR4-LN (Max) % Inhibition / IC50: DR4-LN
Method in brief: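 Antigen-primed lymph node cells (1.5×10^5/well) from mice lacking murine class II and carrying a chimeric human RA-associated class II transgene, cultured 3 days with ovalbumin at half-maximal dose plus compound (~0.1–200 uM) in serum-free HL-1. Proliferation read by 3H-thymidine incorporation over the final 16 h.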

[5] = Stability of compounds in mouse blood plasma; assay type: in vitro ADME
Method in brief: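 Compounds at 5 μM final in rat, mouse or human plasma, incubated at 37 °C and sampled at 0, 6 and 24 h. Proteins precipitated with acetonitrile and the supernatant dried and reconstituted in 50% acetonitrile/0.1% TFA. PBS controls run for unstable compounds.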

[6] = target: T1, LG2 (DR1: DRA1*0101 DRB1*0101) cells (Homo sapiens, UniProt P01903+P01911, A100R/D57E/F55L/F60I/F76Y/I96L/L162R/M171V/P40L/Q125E/R42F/V115G/Y59C); test: Competitive binding to MHC II proteins expressed on LG2 cells; assay type: cell-based; settings: for IC50: Cell binding IC50 (uM) LG2 (0101), LG2 (0101)
T1 construct: MHC II Proteins Expressed on PRIESS and LG2 Cells; endogenous in cells; host or cells: LG2 cells
Procedure: For use in the binding assay the cells were re-suspended in medium containing 1% FCS at a density of 2.5×10^6 cells/ml.
The assay was performed in sterile 96 well polystyrene microtiter plates. A 10 fold dilution series of compounds (16 nM-1615 μM) in 1% FCS was prepared from 5 or 10 mM compound stock solutions in 10% DMSO/water. 50 μl of each compound dilution were added in duplicates to 50 μl of a 16 μM solution of indicator peptide in 1% FCS. Cell binding was initiated by adding 100 μl of 2.5×10^6 cells/ml 1% FCS to each well. Controls were included containing the DMSO concentration present in the solution with the highest compound concentration. The cells were incubated at 37° C., 6% CO2. After 4 hours the cells were washed with 200 μl PBS and lysed in 200 μl lysis buffer (50 mM sodium phosphate, 150 mM sodium chloride, 1% (w/v) NP-40, 25 mM iodoacetamide, 1 mM PMSF, 3.1% protease inhibitor cocktail: 0.32 g/l of Chymostatin, Antipain, Pepstatin A, Soybean trypsin inhibitor and Leupeptin each, pH 7.5) for 10 min.
After washing with PBS, 190 μl of cell lysate were transferred to the appropriate wells of the capture plate and incubated for 2 h at 4° C. The wells were washed six times with 200 μl/well cooled (4 to 8° C.) of 1×DELFIA wash (Wallac-ADL-GmbH, Freiburg), incubated with 100 μl of cooled Europium-streptavidin conjugate (Wallac-ADL-GmbH, Freiburg; diluted 1/1000 with DELFIA assay buffer) for 30 minutes at 4° C., again washed six times with cooled 1×DELFIA wash and, finally, incubated with 200 μl cooled DELFIA enhancement solution (Wallac-ADL-GmbH, Freiburg) for one hour at room temperature before reading the time-resolved europium fluorescence at λex Eu^3+: 340 nm and λem Eu^3+: 613 (615) nm (Wallac Victor^2 1420 Multilabel Counter, Wallac-ADL-GmbH, Freiburg).

CSCC[C@H](NC(=O)[C@@H]1Cc2ccccc2CN1C(=O)[C@@H](NC(=O)[C@H](CC1CCCCC1)NC(C)=O)C1CCN(C(=N)N)CC1)C(=O)N(CCOCCO)Cc1ccccc1 [Compound P102, Ac-Cha-Gpg-Tic-Met-N(Bn)CH2CH2OCH2CH2OH] (Ac-[Cha][Gly(1-amidinopiperidin-4-yl)][Tic]M-X2)
Stability (Arbitrary units) Cath B 4 h [1]: 116 Arbitrary units | IC50 [2]: 2100 nM | IC50 [3]: 580 nM | Immunsupressive assays DR4-LN (Max) % Inhibition [4]: 60% | IC50 [4]: 110 µM | Stability (Arbitrary units) Mouse 6 h [5]: 105 Arbitrary units | Stability (Arbitrary units) Mouse 24 h [5]: 101 Arbitrary units

CCCC[C@H](NC(=O)[C@@H]1Cc2ccccc2CN1C(=O)[C@@H](NC(=O)[C@H](CC1CCCCC1)NC(C)=O)C1CCN(C(=N)N)CC1)C(=O)NCc1ccccc1 [Compound P68, Ac-Cha-Gpg-Tic-Nle-N(H)Bn] (Ac-[Cha][Gly(1-amidinopiperidin-4-yl)][Tic][Nle]-NHBn)
IC50 [6]: 7.2 µM | Stability (Arbitrary units) Cath B 4 h [1]: 52 Arbitrary units | IC50 [2]: 2000 nM | IC50 [3]: 600 nM | Immunsupressive assays DR4-LN (Max) % Inhibition [4]: 102% | IC50 [4]: 18 µM | Stability (Arbitrary units) Mouse 6 h [5]: 49 Arbitrary units | Stability (Arbitrary units) Mouse 24 h [5]: 13 Arbitrary units

CC(=O)N[C@@H](CC1CCCCC1)C(=O)N[C@H](C(=O)N1Cc2ccccc2C[C@H]1C(=O)N[C@@H](CC[S+](C)[O-])C(=O)N1CC[C@H](c2ccccc2)[C@H]1C(=O)N[C@@H](CO)c1nc(C(=O)N(C)C)c(C(C)C)o1)C1CCN(C(=N)N)CC1 (stereo partly drawn) [Compound P47, Ac-Cha-Gpg-Tic-Met(O)-βPhPro-[S(oxaz)L]-NMe2] (Ac-[Cha][Gly(1-amidinopiperidin-4-yl)][Tic][Met(O)][Pro(3R-Ph)][X1]-NMe2)
IC50 [6]: 4.6 µM | binding to MHC class II protein expressed on the surface of LG2 cells ([6]; compared to the Arg-containing equivalent): Improved binding | Stability (Arbitrary units) Cath B 4 h [1]: 100 Arbitrary units | IC50 [2]: 580 nM | IC50 [3]: 330 nM | Immunsupressive assays DR4-LN (Max) % Inhibition [4]: 77% | IC50 [4]: 77 µM | Stability (Arbitrary units) Mouse 6 h [5]: 126 Arbitrary units | Stability (Arbitrary units) Mouse 24 h [5]: 111 Arbitrary units

CCCC[C@H](NC(=O)[C@@H]1Cc2ccccc2CN1C(=O)[C@@H](NC(=O)[C@H](CC1CCCCC1)NC(C)=O)C1CCN(C(=N)N)CC1)C(=O)N(CCOCCO)Cc1ccccc1 [Compound P101, Ac-Cha-Gpg-Tic-Nle-N(Bn)CH2CH2OCH2CH2OH] (Ac-[Cha][Gly(1-amidinopiperidin-4-yl)][Tic][Nle]-X2)
Stability (Arbitrary units) Cath B 4 h [1]: 100 Arbitrary units | IC50 [2]: 650 nM | IC50 [3]: 500 nM | Immunsupressive assays DR4-LN (Max) % Inhibition [4]: 100% | immunosuppressive properties as measured by a T-cell activation assay ([4]; dose-response curves): immunosuppressive properties | IC50 [4]: 69 µM and 66 µM | Stability (Arbitrary units) Mouse 6 h [5]: 107 Arbitrary units | Stability (Arbitrary units) Mouse 24 h [5]: 94 Arbitrary units

CCCC[C@H](NC(=O)[C@@H]1Cc2ccccc2CN1C(=O)[C@H](CCCNC(=N)N)NC(=O)[C@H](CC1CCCCC1)NC(C)=O)C(=O)N(C)Cc1ccccc1 [Compound P71, Ac-Cha-Arg-Tic-Nle-N(Me)Bn] (Ac-[Cha]R[Tic][Nle]-{NMe(benzyl)})
Stability (Arbitrary units) Cath B 4 h [1]: 97 Arbitrary units | Immunsupressive assays DR4-LN (Max) % Inhibition [4]: 102% | IC50 [4]: 19 µM | Stability (Arbitrary units) Mouse 6 h [5]: 117 Arbitrary units
